Test results taken from patent publication US10138207B2, “Benzomorphan analogs and the use thereof” (priority 2012, dated 2018).
Where two headings read alike, the source gives them in different places.

Assays:
[1] = biological target: T1, μ-opioid receptor (Homo sapiens, UniProt P35372); assay: μ-opioid receptor radioligand dose-displacement binding assay ([3H]-diprenorphine); design: expressed in transfected cells; host or cells: HEK-293 or CHO
Description: Radioligand dose-displacement binding assays for μ-opioid receptors used 0.3 nM [^3H]-diprenorphine (Perkin Elmer, Shelton, Conn.), with […] membrane protein/well in a final volume of 500 μl binding buffer (10 mM MgCl2, 1 mM EDTA, 5% DMSO, 50 mM HEPES, pH 7.4). Reactions were carried out in the absence or presence of increasing concentrations of unlabeled naloxone. All reactions were conducted in 96-deep well polypropylene plates for 2 hr at room temperature. […] The data were analyzed using the one-site competition curve fitting functions in GraphPad PRISM™ v. 3.0 or higher (San Diego, Calif.), or an in-house function for one-site competition curve-fitting.

[2] = biological target: T2, κ opioid receptor (Homo sapiens, UniProt P41145); assay: biochemical; format: binding; design: expressed in transfected cells; host or cells: HEK 293 (in-house membrane prep); conditions: HEK-293 or CHO cells
[3] = biological target: T2, κ opioid receptor; assay: κ-opioid receptor [35S]GTPγS functional assay, HEK-293 or CHO cells; format: biochemical; design: expressed in transfected cells; host or cells: U-2 OS (in-house membranes); conditions: for Emax: relative to U69,593
Description: Membranes from recombinant HEK-293 cells, CHO or U-2 OS cells expressing the recombinant human κ opioid receptor (κ) were prepared by lysing cells in ice cold hypotonic buffer (2.5 mM MgCl2, 50 mM HEPES, pH 7.4) (10 mL/10 cm dish) followed by homogenization with a tissue grinder/Teflon pestle. Membranes from a cell line naturally expressing kappa opioid receptors can also be used. Membranes were collected by centrifugation at 30,000×g for 15 min at 4° C. and pellets were resuspended in hypotonic buffer to a final concentration of 1-3 mg/mL. Protein concentrations were determined using the BioRad protein assay reagent with bovine serum albumen as standard. Aliquots of κ receptor membranes were stored at −80° C.
Plates were incubated for 30 min at a temperature of about 25° C. with shaking.

[4] = biological target: T1, μ-opioid receptor; assay: μ-opioid receptor [35S]GTPγS functional assay, HEK-293 or CHO cells; conditions: for Emax: read-out: GTPγS μ Emax
[5] = biological target: T1, μ-opioid receptor; assay: μ-opioid receptor [35S]GTPγS functional assay, U-2 OS cells; format: biochemical; design: expressed in transfected cells; host or cells: U-2 OS; conditions: for Emax: read-out: GTPγS μ Emax
[6] = biological target: T2, κ opioid receptor; assay: κ-opioid receptor [35S]GTPγS functional assay, U-2 OS cells; format: biochemical; design: expressed in transfected cells; host or cells: U-2 OS (in-house membranes); conditions: U-2 OS cells
Description: Membranes from recombinant HEK-293 cells, CHO or U-2 OS cells expressing the recombinant human κ opioid receptor (κ) were prepared by lysing cells in ice cold hypotonic buffer (2.5 mM MgCl2, 50 mM HEPES, pH 7.4) (10 mL/10 cm dish) followed by homogenization with a tissue grinder/Teflon pestle. […] Membranes were collected by centrifugation at 30,000×g for 15 min at 4° C. and pellets were resuspended in hypotonic buffer to a final concentration of 1-3 mg/mL. Protein concentrations were determined using the BioRad protein assay reagent with bovine serum albumen as standard. Aliquots of κ receptor membranes were stored at −80° C.

[7] = HEK-293 or CHO cells, bound in μM, read-out: GTPγS κ EC50
[8] = U-2 OS cells, read-out: GTPγS μ EC50
[9] = U-2 OS cells, relative to DAMGO
[10] = HEK-293 or CHO cells, read-out: GTPγS κ EC50

T2 sequence (P41145 whole entry): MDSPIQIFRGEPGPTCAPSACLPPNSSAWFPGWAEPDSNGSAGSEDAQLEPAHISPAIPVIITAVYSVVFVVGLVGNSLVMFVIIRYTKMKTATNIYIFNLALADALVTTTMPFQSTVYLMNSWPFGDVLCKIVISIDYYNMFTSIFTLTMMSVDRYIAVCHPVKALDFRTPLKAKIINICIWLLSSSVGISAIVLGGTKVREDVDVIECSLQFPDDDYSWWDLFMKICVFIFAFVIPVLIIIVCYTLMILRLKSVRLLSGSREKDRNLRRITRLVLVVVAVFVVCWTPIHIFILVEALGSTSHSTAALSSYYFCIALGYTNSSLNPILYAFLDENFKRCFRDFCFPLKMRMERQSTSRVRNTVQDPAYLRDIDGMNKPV
T1 sequence (P35372 whole entry, species assumed): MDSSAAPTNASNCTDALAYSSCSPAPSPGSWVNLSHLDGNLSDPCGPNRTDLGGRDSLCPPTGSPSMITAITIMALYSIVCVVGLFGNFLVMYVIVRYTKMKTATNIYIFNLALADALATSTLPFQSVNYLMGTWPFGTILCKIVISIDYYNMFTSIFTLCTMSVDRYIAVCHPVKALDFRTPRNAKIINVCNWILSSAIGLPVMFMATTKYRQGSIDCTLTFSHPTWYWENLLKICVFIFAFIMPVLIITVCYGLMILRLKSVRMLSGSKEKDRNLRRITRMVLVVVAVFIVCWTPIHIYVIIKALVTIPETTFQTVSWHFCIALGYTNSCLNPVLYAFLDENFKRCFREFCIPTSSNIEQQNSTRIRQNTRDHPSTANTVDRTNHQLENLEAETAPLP

SMILES: CCN(CC)CCON=C1C2Cc3ccc(OC)cc3C1(C)CCN2C (centres unmarked) [Compound 5, 8-methoxy-3,6-dimethyl-1,2,3,4,5,6-hexahydro-2,6-methanobenzo[d]azocin-11-one O-(2-(diethylamino)ethyl)oxime]
- Ki [1]: > 20000 nM
- Ki [2]: 10.7 µM

SMILES: CN1CC[C@]2(C)c3cc(O)ccc3C[C@@H]1[C@@H]2N(C)C(=O)c1ccccc1 [Compound 39, N-((2R,6R,11R)-8-hydroxy-3,6-dimethyl-1,2,3,4,5,6-hexahydro-2,6-methanobenzo[d]azocin-11-yl)-N-methylbenzamide]
- EC50 [3, 7]: > 20 µM
- Emax ([3]; HEK-293 or CHO cells): -1%
- EC50 [4]: 321 ± 22.2 nM
- Emax [4]: 89.8 ± 5.39%
- Ki [2]: 0.082 ± 0.0104 µM
- EC50 [5, 8]: 0.0183 ± 0.00122 µM
- Emax [5, 9]: 101 ± 3.76%

SMILES: COc1ccc2c(c1)[C@@]1(C)CCN(C)C(C2)[C@@H]1CNC(=O)Cc1ccc(Cl)c(Cl)c1 [Compound 75, 2-(3,4-dichlorophenyl)-N-(((6S,11S)-8-methoxy-3,6-dimethyl-1,2,3,4,5,6-hexahydro-2,6-methanobenzo[d]azocin-11-yl)methyl)acetamide]
- EC50 [3]: > 20 µM
- Emax ([3]; HEK-293 or CHO cells): 0.33 ± 0.67%
- EC50 [4]: 62.3 ± 13.7 nM
- Emax [4]: 112 ± 2.4%
- Ki [2]: 0.185 ± 0.0513 µM
- EC50 ([5]; GTPγS μ EC50, U-2 OS cells): 0.0127 ± 0.00152 µM
- Emax [5, 9]: 104 ± 2.67%

SMILES: CN1CC[C@@]2(C)c3cc(O)ccc3C[C@@H]1[C@@H]2NCC1CCN(C(=O)OC(C)(C)C)CC1 [Compound 30, tert-butyl 4-((((2R,6S,11R)-8-hydroxy-3,6-dimethyl-1,2,3,4,5,6-hexahydro-2,6-methanobenzo[d]azocin-11-yl)amino)methyl)piperidine-1-carboxylate]
- EC50 [3, 7]: > 20 µM
- Emax ([3]; HEK-293 or CHO cells): 0.33 ± 0.67%
- EC50 [4]: 270 ± 33.9 nM
- Emax [4]: 49.7 ± 3.67%
- Ki [2]: 0.00766 ± 0.00196 µM
- EC50 [5, 8]: 0.0336 ± 0.00817 µM
- GTPγS μ Emax [5, 9]: 91.70 ± 4.33%

SMILES: COc1ccc2c(c1)[C@@]1(C)CCN(C)C(C2)[C@@H]1OCC(N)=O [Compound 3, 2-(((6R,11R)-8-methoxy-3,6-dimethyl-1,2,3,4,5,6-hexahydro-2,6-methanobenzo[d]azocin-11-yl)oxy)acetamide]
- Ki [1]: > 20000 nM
- Ki ([2]; bound in μM): > 20 µM

SMILES: COc1ccc2c(c1)[C@@]1(C)CCN(C)C(C2)[C@H]1OCC(N)=O [Compound 4, 2-(((6R,11S)-8-methoxy-3,6-dimethyl-1,2,3,4,5,6-hexahydro-2,6-methanobenzo[d]azocin-11-yl)oxy)acetamide]
- Ki [1]: > 20000 nM
- Ki ([2]; bound in μM): > 20 µM

SMILES: CN1CC[C@@]2(C)c3cc(O)ccc3C[C@@H]1[C@@H]2N(C)CC1CCN(C(=O)OC(C)(C)C)CC1 [Compound 31, tert-butyl 4-((((2R,6S,11R)-8-hydroxy-3,6-dimethyl-1,2,3,4,5,6-hexahydro-2,6-methanobenzo[d]azocin-11-yl)(methyl)amino)methyl)piperidine-1-carboxylate]
- EC50 [3, 7]: > 20 µM
- Emax ([3]; HEK-293 or CHO cells): 1%
- EC50 [4]: 12.3 ± 0.95 nM
- Emax [4]: 61 ± 3%
- Ki [2]: 0.00034 ± 9e-05 µM
- EC50 [5, 8]: 0.00041 ± 0.00038 µM
- Emax [5, 9]: 94.3 ± 3.18%

SMILES: CN(C(=O)Nc1ccc(C#N)cc1)[C@H]1C2Cc3ccc(O)cc3[C@@]1(C)CCN2Cc1cccc(F)c1F [Compound 89, 3-(4-cyanophenyl)-1-((6R,11R)-3-(2,3-difluorobenzyl)-8-hydroxy-6-methyl-1,2,3,4,5,6-hexahydro-2,6-methanobenzo[d]azocin-11-yl)-1-methylurea]
- EC50 [3, 7]: > 20 µM
- EC50 [4]: > 20000 nM
- Ki [2]: 0.0092 ± 0.0009 µM
- EC50 ([5]; U-2 OS cells, bound in μM, read-out: GTPγS μ EC50): > 20 µM
- Emax [5, 9]: 1.17 ± 1.01%

SMILES: COc1ccc2c(c1)[C@@]1(C)CCN(CC3CC3)C(C2)C1N(C)C(=O)/C=C/c1ccoc1 (stereo in doubt) [Compound 57, (E)-N-((2R,6R,11S)-3-(cyclopropylmethyl)-8-methoxy-6-methyl-1,2,3,4,5,6-hexahydro-2,6-methanobenzo[d]azocin-11-yl)-3-(furan-3-yl)-N-methylacrylamide]
- EC50 [3, 10]: 0.351 ± 0.115 µM
- Emax ([3]; HEK-293 or CHO cells): 85.7 ± 3.93%
- EC50 [4]: 315 ± 47.9 nM
- Emax [4]: 112 ± 7.22%
- Ki ([1]; HEK-293 or CHO cells, read-out: Ki Opioid Receptor μ): 236 ± 70.2 nM
- Ki [2]: 0.00461 ± 0.00143 µM

SMILES: COc1ccc2c(c1)C1(C)CCN(C)C(C2)C1=NOCC(=O)O (centres unmarked) [Compound 1, 2-(((8-methoxy-3,6-dimethyl-1,2,3,4,5,6-hexahydro-2,6-methanobenzo[d]azocin-11-ylidene)amino)oxy)acetic Acid]
- Ki [1]: > 20000 nM
- Ki [2]: 12.1 µM

SMILES: CN(C(=O)Nc1ccc(C#N)cc1)[C@H]1C2Cc3ccc(O)cc3[C@@]1(C)CCN2CC1CC1 [Compound 80, 3-(4-cyanophenyl)-1-((6R,11R)-3-(cyclopropylmethyl)-8-hydroxy-6-methyl-1,2,3,4,5,6-hexahydro-2,6-methanobenzo[d]azocin-11-yl)-1-methylurea]
- EC50 [3, 7]: > 20 µM
- EC50 [4]: 216 ± 38.7 nM
- Emax [4]: 92.4 ± 3.23%
- Ki [2]: 0.00119 ± 0.00032 µM
- EC50 [5, 8]: 0.0002 ± 1.3e-05 µM
- Emax [5, 9]: 113 ± 3.53%

SMILES: CN1CC[C@]2(C)c3cc(O)ccc3C[C@@H]1[C@H]2Nc1ccc(CCS(N)(=O)=O)cc1 [Compound 50, 2-(4-(((2R,6R,11S)-8-hydroxy-3,6-dimethyl-1,2,3,4,5,6-hexahydro-2,6-methanobenzo[d]azocin-11-yl)amino)phenyl)ethanesulfonamide]
- EC50 [3, 7]: > 20 µM
- EC50 [4]: 189 ± 13.7 nM
- Emax [4]: 93.8 ± 2.17%
- Ki [2]: 0.0583 ± 0.0101 µM
- EC50 ([6]; bound in μM, read-out: GTPγS κ EC50): > 20 µM
- Emax ([6]; relative to U69,593, read-out: GTPγS κ Emax): 9.78 ± 2.97%
- EC50 [5, 8]: 0.042 ± 0.0109 µM
- Emax [5, 9]: 86.5 ± 4.14%

SMILES: CN(C(=O)Nc1ccc(C#N)cc1)[C@H]1C2Cc3ccc(O)cc3[C@@]1(C)CCN2CC1CCC1 [Compound 88, 3-(4-cyanophenyl)-1-((6R,11R)-3-(cyclobutylmethyl)-8-hydroxy-6-methyl-1,2,3,4,5,6-hexahydro-2,6-methanobenzo[d]azocin-11-yl)-1-methylurea]
- EC50 [3, 10]: 0.0247 ± 0.00535 µM
- Emax ([3]; HEK-293 or CHO cells): 18.5 ± 2.84%
- EC50 [4]: 7.58 ± 1.06 nM
- Emax [4]: 74.7 ± 1.86%
- Ki [2]: 0.00474 ± 0.00155 µM
- EC50 [5, 8]: 0.00167 ± 0.00016 µM
- Emax [5, 9]: 85.7 ± 2.33%

SMILES: COc1ccc2c(c1)C1(C)CCN(C)C(C2)C1=NO (centres unmarked) [Compound 2, 8-methoxy-3,6-dimethyl-1,2,3,4,5,6-hexahydro-2,6-methanobenzo[d]azocin-11-one Oxime]
- Ki [1]: > 20000 nM
- Ki [2]: 2.58 ± 0.122 µM

SMILES: CN1CC[C@]2(C)c3cc(O)ccc3CC1C2N(C)c1ccc(CCS(N)(=O)=O)cc1 (stereo in doubt) [Compound 51, 2-(4-(((2R,6R,11S)-8-hydroxy-3,6-dimethyl-1,2,3,4,5,6-hexahydro-2,6-methanobenzo[d]azocin-11-yl)(methyl)amino)phenyl)ethanesulfonamide]
- EC50 [3, 7]: > 20 µM
- EC50 [4]: 1.44 ± 0.44 nM
- Emax [4]: 100 ± 7.22%
- Ki [2]: 0.00783 ± 0.00095 µM
- EC50 [5, 8]: 0.00021 ± 2.1e-05 µM
- Emax [5, 9]: 113 ± 2.65%

SMILES: CCC=C1C2Cc3ccc(OC)cc3C1(C)CCN2C (centres unmarked) [Compound 6, 8-methoxy-3,6-dimethyl-11-propylidene-1,2,3,4,5,6-hexahydro-2,6-methanobenzo[d]azocine]
- Ki [1]: > 20000 nM
- Ki [2]: 3.16 ± 1.24 µM

SMILES: CN(C(=O)Nc1ccc(C#N)cc1)C1C2Cc3ccc(O)cc3[C@@]1(C)CCN2Cc1ccoc1 (stereo in doubt) [Compound 90, 3-(4-cyanophenyl)-1-((2R,6R,11S)-3-(furan-3-ylmethyl)-8-hydroxy-6-methyl-1,2,3,4,5,6-hexahydro-2,6-methanobenzo[d]azocin-11-yl)-1-methylurea]
- EC50 [3, 7]: > 20 µM
- Emax ([3]; HEK-293 or CHO cells): 1%
- EC50 [4]: 5.92 ± 1.82 nM
- Emax [4]: 32.7 ± 5.78%
- Ki [2]: 0.00174 ± 0.00045 µM
- EC50 [5, 8]: 0.00702 ± 0.00189 µM
- Emax [5, 9]: 14 ± 1%

SMILES: CN(C(=O)/C=C/c1ccoc1)[C@@H]1[C@H]2Cc3ccc(O)cc3[C@@]1(C)CCN2CC1CC1 [Compound 77, (E)-N-((2R,6R,11S)-3-(cyclopropylmethyl)-8-hydroxy-6-methyl-1,2,3,4,5,6-hexahydro-2,6-methanobenzo[d]azocin-11-yl)-3-(furan-3-yl)-N-methylacrylamide]
- EC50 [3]: > 20 µM
- Emax ([3]; HEK-293 or CHO cells): -1%
- EC50 [4]: 144 ± 11 nM
- Emax [4]: 56.5 ± 2.02%
- Ki [2]: 0.0043 ± 0.00091 µM
- EC50 ([5]; GTPγS μ EC50, U-2 OS cells): 0.029 ± 0.00086 µM
- Emax [5, 9]: 77.7 ± 0.88%
